Where two headings read alike, the source gives them in different places.
Conditions: aqueous solution
Procedure: In addition, an equilibrium constant of inclusion complex between epinephrine and sulfobutyl ether β-cyclodextrin (SBE-CD) in aqueous solution was determined using a spectroscopy technique, i.e., UV spectrophotometer as shown in FIG. 1. The equilibrium constant (K) between epinephrine and SBE-CD was determined by increasing the molar concentration ratio of SBD-CD to epinephrine in solution and measuring the spectral shift (ΔA) as shown FIG. 2 at pH 3.5. The K value was derived from the slope and intercept of a linear relationship from a plot between [Epi][SBD-CD]/ΔA and [SBD-CD] according to the Hildebrand and Benesi equation as shown in FIG. 2 (Rong Liu, Editor, Water-Insoluble Drug Formulation, Interpharm Press, 2000; and F. Cramer et. al., The Formation of Inclusion Compounds of a-Cyclodextrin in Aqueous Solutions, J. Am. Chem. Soc., 89, 14-20, 1967, the disclosures of which are incorporated herein by reference in their entireties).

equilibrium constant (K) between epinephrine and SBE-CD (pH 3.5, room temperature): 488 M⁻¹ | equilibrium constant (K) between epinephrine and SBE-CD (pH 5.5): 111 M⁻¹
SMILES: CNCC(O)c1ccc(O)c(O)c1 (single isomer, unassigned; (-)) [epinephrine, (−)-3,4-Dihydroxy-α-[(methylamino)methyl]benzyl alcohol]

Source: patent publication US20190240337A1, “EPINEPHRINE FORMULATIONS FOR MEDICINAL PRODUCTS” (priority 2013, published 2019)
